According to patent US20260347364A1, “PYRAZOLO[4,3-F]QUINAZOLINE DERIVATIVES AS MODULATORS OF G12D MUTANT KRAS USEFUL FOR THE TREATMENT OF CANCER” (JAZZ PHARMACEUTICALS IRELAND LTD., priority 2023, published 2026):

What was measured:
KRAS G12D = biological target: T1, KRAS G12D (Homo sapiens, UniProt P01116, G12D); experiment: HTRF nucleotide exchange assay, KRAS G12D; format: biochemical; conditions: class symbols; for IC50: HTRF nucleotide exchange assay (NEA)
T1 construct: aa1-188 KRAS WT, HRAS WT, NRAS WT, or KRAS containing the G12D

KRAS WT = biological target: T2, KRAS WT (Homo sapiens, UniProt P01116); experiment: HTRF nucleotide exchange assay, KRAS WT; format: biochemical; conditions: class symbols; for IC50: HTRF nucleotide exchange assay (NEA)
T2 construct: aa1-188 KRAS WT

SMILES | IC50 (KRAS G12D) | IC50 (KRAS WT) | KRAS^WT NEA (KRAS WT) | KRAS^G12D NEA (KRAS G12D)
CCc1c(F)ccc2cc(O)cc(-c3cc4nc(OC[C@@]56CCCN5C[C@H](F)C6)nc(N5CCC(C)(O)CC5)c4c4cn(C)nc34)c12 [Example 118, 1-[4-(8-ethyl-7-fluoro-3-hydroxy-1-naphthyl)-2-methyl-7-[[(2R,8S)-2-fluoro-1,2,3,5,6,7-hexahydropyrrolizin-8-yl]methoxy]pyrazolo[4,3-f]quinazolin-9-yl]-4-methyl-piperidin-4-ol] | 100 to 10000 nM | 100 to 10000 nM |  | 
CCc1c(F)ccc2cc(O)cc(-c3cc4nc(OC[C@@]56CCCN5C[C@H](F)C6)nc(N5CCC(C)(OC)CC5)c4c4cn(C)nc34)c12 [Example 119, 5-ethyl-6-fluoro-4-[9-(4-methoxy-4-methyl-1-piperidyl)-2-methyl-7-[[(2R,8S)-2-fluoro-1,2,3,5,6,7-hexahydropyrrolizin-8-yl]methoxy]pyrazolo[4,3-f]quinazolin-4-yl]naphthalen-2-ol] | 100 to 10000 nM | 100 to 10000 nM |  | 
CCc1c(F)ccc2cc(O)cc(-c3cc4nc(OC[C@@]56CCCN5C[C@H](F)C6)nc(N5CCOCC(O)C5)c4c4cn(C)nc34)c12 (stereo partly drawn) [Example 120, 4-[4-(8-ethyl-7-fluoro-3-hydroxy-1-naphthyl)-2-methyl-7-[[(2R,8S)-2-fluoro-1,2,3,5,6,7-hexahydropyrrolizin-8-yl]methoxy]pyrazolo[4,3-f]quinazolin-9-yl]-1,4-oxazepan-6-ol] | ≤ 10 nM | ≤ 10 nM |  | 
CCc1c(F)ccc2cc(O)cc(-c3cc4nc(OC[C@@]56CCCN5C[C@H](F)C6)nc(N5CCOCC(C)C5)c4c4cn(C)nc34)c12 (stereo partly drawn) [Example 121, 5-ethyl-6-fluoro-4-[2-methyl-9-(6-methyl-1,4-oxazepan-4-yl)-7-[[(2R,8S)-2-fluoro-1,2,3,5,6,7-hexahydropyrrolizin-8-yl]methoxy]pyrazolo[4,3-f]quinazolin-4-yl]naphthalen-2-ol] | ≤ 10 nM | ≤ 10 nM |  | 
CCc1c(F)ccc2cc(O)cc(-c3cc4nc(OC[C@@]56CCCN5C[C@H](F)C6)nc(N5CCC(CO)C5)c4c4cn(C)nc34)c12 (stereo partly drawn) [Example 122, 5-ethyl-6-fluoro-4-[9-[3-(hydroxymethyl)pyrrolidin-1-yl]-2-methyl-7-[[(2R,8S)-2-fluoro-1,2,3,5,6,7-hexahydropyrrolizin-8-yl]methoxy]pyrazolo[4,3-f]quinazolin-4-yl]naphthalen-2-ol] | ≤ 10 nM | ≤ 10 nM |  | 
CCc1c(F)ccc2cc(O)cc(-c3cc4nc(OC[C@@]56CCCN5C[C@H](F)C6)nc(N5CCOCC(O)(C(F)(F)F)C5)c4c4cn(C)nc34)c12 (stereo partly drawn) [Example 123, 4-[4-(8-ethyl-7-fluoro-3-hydroxy-1-naphthyl)-2-methyl-7-[[(2R,8S)-2-fluoro-1,2,3,5,6,7-hexahydropyrrolizin-8-yl]methoxy]pyrazolo[4,3-f]quinazolin-9-yl]-6-(trifluoromethyl)-1,4-oxazepan-6-ol] | 10 to 100 nM | 10 to 100 nM |  | 
CCc1c(F)ccc2cc(O)cc(-c3cc4nc(OC[C@@]56CCCN5C[C@H](F)C6)nc(N5CC6CC(O)C(C6)C5)c4c4cn(C)nc34)c12 (stereo partly drawn) [Example 124, 3-[4-(8-ethyl-7-fluoro-3-hydroxy-1-naphthyl)-2-methyl-7-[[(2R,8S)-2-fluoro-1,2,3,5,6,7-hexahydropyrrolizin-8-yl]methoxy]pyrazolo[4,3-f]quinazolin-9-yl]-3-azabicyclo[3.2.1]octan-6-ol] | ≤ 10 nM | ≤ 10 nM |  | 
CCc1c(F)ccc2cc(O)cc(-c3cc4nc(OC[C@@]56CCCN5C[C@H](F)C6)nc(N5CCCC6(CCO6)C5)c4c4cn(C)nc34)c12 (stereo partly drawn) [Example 125, 5-ethyl-6-fluoro-4-[2-methyl-9-(1-oxa-8-azaspiro[3.5]nonan-8-yl)-7-[[(2R,8S)-2-fluoro-1,2,3,5,6,7-hexahydropyrrolizin-8-yl]methoxy]pyrazolo[4,3-f]quinazolin-4-yl]naphthalen-2-ol] | 10 to 100 nM | 10 to 100 nM |  | 
CCc1c(F)ccc2cc(O)cc(-c3cc4nc(OC[C@@]56CCCN5C[C@H](F)C6)nc(N5CCC(O)C(F)(F)CC5)c4c4cn(C)nc34)c12 (stereo partly drawn) [Example 126, 1-[4-(8-ethyl-7-fluoro-3-hydroxy-1-naphthyl)-2-methyl-7-[[(2R,8S)-2-fluoro-1,2,3,5,6,7-hexahydropyrrolizin-8-yl]methoxy]pyrazolo[4,3-f]quinazolin-9-yl]-5,5-difluoro-azepan-4-ol] | 10 to 100 nM | 10 to 100 nM |  | 
CCc1c(F)ccc2cc(O)cc(-c3cc4nc(OC[C@@]56CCCN5C[C@H](F)C6)nc(N5CCC6CC6(O)C5)c4c4cn(C)nc34)c12 (stereo partly drawn) [Example 127, 3-[4-(8-ethyl-7-fluoro-3-hydroxy-1-naphthyl)-2-methyl-7-[[(2R,8S)-2-fluoro-1,2,3,5,6,7-hexahydropyrrolizin-8-yl]methoxy]pyrazolo[4,3-f]quinazolin-9-yl]-3-azabicyclo[4.1.0]heptan-1-ol] | 10 to 100 nM | 10 to 100 nM |  | 
CCc1c(F)ccc2cc(O)cc(-c3cc4nc(OC[C@@]56CCCN5C[C@H](F)C6)nc(N5CC(C(C)(C)O)C5)c4c4cn(C)nc34)c12 [Example 128, 5-ethyl-6-fluoro-4-[9-[3-(1-hydroxy-1-methyl-ethyl)azetidin-1-yl]-2-methyl-7-[[(2R,8S)-2-fluoro-1,2,3,5,6,7-hexahydropyrrolizin-8-yl]methoxy]pyrazolo[4,3-f]quinazolin-4-yl]naphthalen-2-ol] | 100 to 10000 nM |  | D (<49% inhibition at 10 μM) | 
C#CC1(O)CCCN(c2nc(OC[C@@]34CCCN3C[C@H](F)C4)nc3cc(-c4cc(O)cc5ccc(F)c(CC)c45)c4nn(C)cc4c23)C1 (stereo partly drawn) [Example 129, 1-[4-(8-ethyl-7-fluoro-3-hydroxy-1-naphthyl)-2-methyl-7-[[(2R,8S)-2-fluoro-1,2,3,5,6,7-hexahydropyrrolizin-8-yl]methoxy]pyrazolo[4,3-f]quinazolin-9-yl]-3-ethynyl-piperidin-3-ol] | 10 to 100 nM | 10 to 100 nM |  | 
CCc1c(F)ccc2cc(O)cc(-c3cc4nc(OC[C@@]56CCCN5C[C@H](F)C6)nc(N5CCC6(CC6)C(O)C5)c4c4cn(C)nc34)c12 (stereo partly drawn) [Example 130, 6-[4-(8-ethyl-7-fluoro-3-hydroxy-1-naphthyl)-2-methyl-7-[[(2R,8S)-2-fluoro-1,2,3,5,6,7-hexahydropyrrolizin-8-yl]methoxy]pyrazolo[4,3-f]quinazolin-9-yl]-6-azaspiro[2.5]octan-8-ol] |  | 100 to 10000 nM |  | D (<49% inhibition at 10 μM)
CCc1c(F)ccc2cc(O)cc(-c3cc4nc(OC[C@@]56CCCN5C[C@H](F)C6)nc(N5CCCC(C)(OC)C5)c4c4cn(C)nc34)c12 (stereo partly drawn) [Example 131, 5-ethyl-6-fluoro-4-[9-(3-methoxy-3-methyl-1-piperidyl)-2-methyl-7-[[(2R,8S)-2-fluoro-1,2,3,5,6,7-hexahydropyrrolizin-8-yl]methoxy]pyrazolo[4,3-f]quinazolin-4-yl]naphthalen-2-ol] | 10 to 100 nM | 100 to 10000 nM |  | 
CCc1c(F)ccc2cc(O)cc(-c3cc4nc(OC[C@@]56CCCN5C[C@H](F)C6)nc(N5CCCC(C)(C#N)C5)c4c4cn(C)nc34)c12 (stereo partly drawn) [Example 132, 1-[4-(8-ethyl-7-fluoro-3-hydroxy-1-naphthyl)-2-methyl-7-[[(2R,8S)-2-fluoro-1,2,3,5,6,7-hexahydropyrrolizin-8-yl]methoxy]pyrazolo[4,3-f]quinazolin-9-yl]-3-methyl-piperidine-3-carbonitrile] | 100 to 10000 nM | 100 to 10000 nM |  | 
